Assay results as given in patent US8772500B2, “TRPV3 modulators” (AbbVie Inc., priority 2011, dated 2014).

Columns and labels:
[1] = In vitro rat microsomal stability assay; type: in vitro ADME, rat (Sprague-Dawley)
Method: (§1) Test compounds were evaluated for metabolic stability in an in vitro rat microsomal stability assay using rat (Sprague-Dawley, from BD Biosciences) liver microsomes and/or an in vitro human microsomal stability assay using human (Xenotech) liver microsomes. […] Incubations were carried out at 37° C. with a final incubation volume of 135 μL. […] A 1.5 μL aliquot of reduced nicotine adenine disphosphonucleotide (NADPH) (Chem-Impex Int'L Inc., Lot 12532024) was also added to the time-zero plates.

[2] = In vitro human microsomal stability assay; type: in vitro ADME
Method: as §1

[3] = Sprague-Dawley, rat, 0.5 h, 0.5 μM, pH 7.4
[4] = 0.5 μM substrate, 0.25 mg/mL microsomal protein, pH 7.4, 37° C., NADPH, 30 minutes

Row | SMILES | RAT MICROSOMAL STABILITY (% REMAINING AFTER 30 MINUTES) [1, 3] [%] | HUMAN MICROSOMAL STABILITY (% REMAINING AFTER 30 MINUTES) ([2]; human, 0.5 h, 0.5 μM, pH 7.4) [%] | RAT MICROSOMAL STABILITY (% REMAINING AFTER 30 MINUTES) [1, 4] [%] | HUMAN MICROSOMAL STABILITY (% REMAINING AFTER 30 MINUTES) [2, 4] [%]
1 | OC(c1ccccn1)C1(c2ccccn2)CCC1 (stereo not shown) [Example 19, pyridin-2-yl(1-pyridin-2-ylcyclobutyl)methanol] | 76 | >85 | – | –
2 | OC(c1ccccn1)C1(c2ccc(Cl)c(Cl)c2)CCCCC1 (stereo not shown) [Example 43, [1-(3,4-dichlorophenyl)cyclohexyl](pyridin-2-yl)methanol] | 0.31 | 1.8 | – | –
3 | OC1CC(c2cc(C(F)(F)F)ccn2)([C@H](O)c2ccccn2)C1 (stereo partly drawn) [Example 294, 3-[(S)-hydroxy(pyridin-2-yl)methyl]-3-[4-(trifluoromethyl)pyridin-2-yl]cyclobutanol] | >85 | >85 | – | –
4 | OC(c1ccccn1)C1(c2cccc(F)c2)CCCO1 (single isomer, unassigned) [Example 101, (syn)-[2-(3-fluorophenyl)tetrahydrofuran-2-yl](pyridin-2-yl)methanol] | 0.17 | 40 | – | –
5 | O=C1CC(c2cccc(C(F)(F)F)c2)([C@@H](O)c2ccccn2)C1 [Example 243, 3-[(R)-hydroxy(pyridin-2-yl)methyl]-3-[3-(trifluoromethyl)phenyl]-cyclobutanone] | 55 | 64 | – | –
6 | COc1ccnc(C(O)C2(c3ccc(Cl)c(Cl)c3)CCC2)c1 (stereo not shown) [Example 289, [1-(3,4-dichlorophenyl)cyclobutyl](4-methoxypyridin-2-yl)methanol] | <0.01 | 4.2 | – | –
7 | OC(c1ccccn1)C1(C2(O)CCOC2)CCC1 (stereo not shown) [Example 246, 3-{1-[hydroxy(pyridin-2-yl)methyl]cyclobutyl}tetrahydrofuran-3-ol] | 59 | 71 | – | –
8 | O=C1CC(c2cncc(C(F)(F)F)c2)([C@H](O)c2ccccn2)C1 [Example 296, 3-[(S)-hydroxy(pyridin-2-yl)methyl]-3-[5-(trifluoromethyl)pyridin-3-yl]cyclobutanone] | 12 | 67 | – | –
9 | O[C@H](c1ncccn1)C1(c2ccc(C(F)(F)F)cc2)CCC1 [Example 41, (S)-pyrimidin-2-yl{1-[4-(trifluoromethyl)phenyl]cyclobutyl}methanol] | 21 | 54 | – | –
10 | O=C1CC(c2cccc(C(F)(F)F)c2)([C@H](O)c2ccccn2)C1 [Example 241, 3-[(S)-hydroxy(pyridin-2-yl)methyl]-3-[3-(trifluoromethyl)phenyl]-cyclobutanone] | 59 | 66 | – | –
11 | OC(C1CCc2cccnc21)C1(c2ccc(Cl)c(Cl)c2)CCC1 (stereo not drawn) [Example 167, (anti)-[1-(3,4-dichlorophenyl)cyclobutyl][6,7-dihydro-5H-cyclopenta[b]-pyridin-7-yl]methanol] | <0.01 | 9.5 | – | –
12 | OC(C1CCc2cccnc21)C1(c2ccc(F)c(F)c2)CCC1 (stereo not drawn) [Example 172, (syn)-[1-(3,4-difluorophenyl)cyclobutyl][6,7-dihydro-5H-cyclopenta[b]-pyridin-7-yl]methanol] | <0.01 | 2.4 | – | –
13 | OC(C1CCc2cccnc21)C1(c2ccc(C(F)(F)F)cc2)CCC1 (stereo not drawn) [Example 174, (syn)-6,7-dihydro-5H-cyclopenta[b]pyridin-7-yl{1-[4-(trifluoromethyl)-phenyl]cyclobutyl}methanol] | <0.01 | 26 | – | –
14 | OC(c1ccccn1)C1(c2ccncc2)CCC1 (stereo not shown) [Example 21, pyridin-2-yl(1-pyridin-4-ylcyclobutyl)methanol] | 52 | 71 | – | –
15 | OC(c1ccccn1)C1(c2ccc(C(F)(F)F)cc2)CCNCC1 (stereo not shown) [Example 147, pyridin-2-yl{4-[4-(trifluoromethyl)phenyl]piperidin-4-yl}methanol] | 79 | >85 | – | –
16 | CC(C)(C)OC(=O)N1CCC(c2ccc(C(F)(F)F)cc2)(C(O)c2ccccn2)CC1 (stereo not shown) [Example 156, tert-butyl 4-[hydroxy(pyridin-2-yl)methyl]-4-[4-(trifluoromethyl)phenyl]-piperidine-1-carboxylate] | 0.08 | 26 | – | –

Row | SMILES | RAT MICROSOMAL STABILITY (% REMAINING AFTER 30 MINUTES) [1, 3] [%] | HUMAN MICROSOMAL STABILITY (% REMAINING AFTER 30 MINUTES) ([2]; human, 0.5 h, 0.5 μM, pH 7.4) [%] | RAT MICROSOMAL STABILITY (% REMAINING AFTER 30 MINUTES) [1, 4] [%] | HUMAN MICROSOMAL STABILITY (% REMAINING AFTER 30 MINUTES) [2, 4] [%]
17 | O[C@@H](c1ccccn1)C1(c2cc(C(F)(F)F)ccn2)CCC1 [Example 122, (R)-pyridin-2-yl{1-[4-(trifluoromethyl)pyridin-2-yl]cyclobutyl}methanol] | 26 | 28 | – | –
18 | COc1ccc(C(O)C2(c3ccc(Cl)c(Cl)c3)CCC2)nc1 (stereo not shown) [Example 287, [1-(3,4-dichlorophenyl)cyclobutyl](5-methoxypyridin-2-yl)methanol] | <0.01 | 15 | – | –
19 | CC1(O)CC(c2ccc(OC(F)(F)F)cc2)(C(O)c2ncccn2)C1 [Example 310, (trans)-3-((S)-hydroxy(pyrimidin-2-yl)methyl)-1-methyl-3-(4-(trifluoromethoxy)phenyl)cyclobutanol] | >85 | >85 | – | –
20 | O=C1CC(c2ccc(F)c(Cl)c2)([C@H](O)c2ccccn2)C1 [Example 268, 3-(3-chloro-4-fluorophenyl)-3-[(S)-hydroxy(pyridin-2-yl)methyl]-cyclobutanone] | 82 | 66 | – | –
21 | OC(c1ccccn1)C1(c2ccccc2F)CCCO1 (stereo not shown) [Example 102] | 0.55 | 45 | – | –
22 | Nc1cccnc1C(O)C1(c2cccc(OC(F)(F)F)c2)CCC1 (stereo not shown) [Example 124, (3-aminopyridin-2-yl){1-[3-(trifluoromethoxy)phenyl]cyclobutyl}methanol] | <0.01 | 1.6 | – | –
23 | OC(C1CCCc2cccnc21)C1(c2ccc(C(F)(F)F)cc2)CCC1 (single isomer, unassigned) [Example 184, (syn)-5,6,7,8-tetrahydroquinolin-8-yl{1-[4-(trifluoromethyl)phenyl]-cyclobutyl}methanol] | <0.01 | 0.46 | – | –
24 | O=C1CC(c2cccc(OC(F)(F)F)c2)([C@@H](O)c2ccccn2)C1 [Example 257, 3-[(R)-hydroxy(pyridin-2-yl)methyl]-3-[3-(trifluoromethoxy)phenyl]-cyclobutanone] | 57 | 42 | – | –
25 | CN1CCC(c2ccc(C(F)(F)F)cc2)(C(O)c2ccccn2)CC1 (stereo not shown) [Example 143, {1-methyl-4-[4-(trifluoromethyl)phenyl]piperidin-4-yl}(pyridin-2-yl)-methanol] | – | – | 80 | >85
26 | OC(C1CCCc2cccnc21)C1(c2ccc(Cl)c(Cl)c2)CCC1 (single isomer, unassigned) [Example 182, (syn)-[1-(3,4-dichlorophenyl)cyclobutyl][5,6,7,8-tetrahydroquinolin-8-yl]-methanol] | <0.01 | <0.01 | – | –
27 | Nc1cccnc1C(O)C1(c2cccc(C(F)(F)F)c2)CCC1 (stereo not shown) [Example 120, (3-aminopyridin-2-yl){1-[3-(trifluoromethyl)phenyl]cyclobutyl}methanol] | <0.01 | 1.6 | – | –
28 | OC(C1CCCc2cccnc21)C1(c2ccccc2C(F)(F)F)CCC1 (stereo not drawn) [Example 196, (syn)-5,6,7,8-tetrahydroquinolin-8-yl{1-[2-(trifluoromethyl)phenyl]-cyclobutyl}methanol] | <0.01 | <0.01 | – | –
29 | OC(C1CCCc2cccnc21)C1(c2cccc(OC(F)(F)F)c2)CCC1 (stereo not drawn) [Example 187, (anti)-5,6,7,8-tetrahydroquinolin-8-yl{1-[3-(trifluoromethoxy)phenyl]-cyclobutyl}methanol] | <0.01 | <0.01 | – | –
30 | OC(C1CCCc2cccnc21)C1(c2cccc(OC(F)(F)F)c2)CCC1 (stereo not drawn) [Example 188, (syn)-5,6,7,8-tetrahydroquinolin-8-yl{1-[3-(trifluoromethoxy)phenyl]-cyclobutyl}methanol] | <0.01 | 0.16 | – | –
31 | OC(c1ccccn1)C1(c2ccccc2OC(F)(F)F)CCNCC1 (stereo not shown) [Example 142, pyridin-2-yl{4-[2-(trifluoromethoxy)phenyl]piperidin-4-yl}methanol] | 37 | >85 | – | –
32 | OC(C1CCc2cccnc21)C1(c2ccccc2OC(F)(F)F)CCC1 (stereo not drawn) [Example 194, (syn)-6,7-dihydro-5H-cyclopenta[b]pyridin-7-yl{1-[2-(trifluoromethoxy)-phenyl]cyclobutyl}methanol] | <0.01 | 0.08 | – | –
